Experimental findings from PubChem BioAssay AID488889 (Sanford-Burnham Center for Chemical Genomics, 2010) are described below.

This assay has as its target Tyrosine-protein phosphatase non-receptor type 7 (Homo sapiens) (UniProt P35236). As to the kind of experiment: inhibition of hematopoietic tyrosine phosphatase HePTP – biochemical, set 3, SAR follow-up (AID 488889). As to conditions: recombinant HePTP phosphatase activity assay.

Structures are written as SMILES.

Tyrosine-protein phosphatase non-receptor type 7 (Homo sapiens), sequence (P35236 whole entry, looked up): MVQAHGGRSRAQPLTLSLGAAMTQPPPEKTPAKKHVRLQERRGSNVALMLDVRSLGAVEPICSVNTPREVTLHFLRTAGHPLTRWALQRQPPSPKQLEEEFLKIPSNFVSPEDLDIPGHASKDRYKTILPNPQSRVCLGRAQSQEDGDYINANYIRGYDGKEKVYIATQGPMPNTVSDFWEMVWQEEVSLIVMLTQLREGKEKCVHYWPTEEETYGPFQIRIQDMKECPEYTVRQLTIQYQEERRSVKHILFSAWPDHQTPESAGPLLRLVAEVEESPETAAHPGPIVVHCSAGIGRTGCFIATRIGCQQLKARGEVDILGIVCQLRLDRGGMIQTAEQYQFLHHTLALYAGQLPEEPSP

Turning to `CCOC(=O)COc1ccc(/C=N/NC(=O)c2ccc(-c3csc(Nc4ccc(Cl)cc4)n3)cc2)cc1`, the half-inhibitory concentration (IC50) (in general, the concentration that inhibits the measured activity by half) is 10.2 µM. As for `O=C(O)COc1ccc(/C=N/NC(=O)c2ccc(-c3csc(Nc4ccc(Cl)cc4)n3)cc2)cc1`, the IC50 was under 0.195 µM.
